Source: patent US20060111305A1, “Metabolites of certain [1,4]diazepino[6,7,1-ij]quinoline derivatives and methods of preparation and use thereof” (Wyeth, priority 2004, published 2006)
“And” between values parts separate entries of the source, which are not always exact repeats. Equal values may be shown once.

Test: M6 to DCDQ ratios in human urine, LC/MS (Table 35)
Format: in vivo, healthy human subjects
Description: Drug administration and specimen collection were performed in a randomized, double-blinded, placebo-controlled, ascending single dose study of the safety, tolerability, pharmacokinetics, and pharmacodynamics of DCDQ administered orally to healthy subjects and subjects with schizophrenia and schizoaffective disorder. The specimens were stored at approximately −70° C. until analysis for metabolite profiles and for ratios of carbamoyl glucuronide (M6) to DCDQ.
The 0-4, 4-12 and 12-24 hr urine samples from the same subjects in the single dose groups were analyzed for ratios of M6 to DCDQ. The internal standard was not used in the analysis of urine samples. The samples were diluted for 20-fold with a control urine sample and directly analyzed by LC/MS. To estimate M6-to-DCDQ ratios in human urine, control urine samples were spiked with 200 ng/mL of DCDQ and 1000, 5000, or 10000 ng/mL of DCDQ carbamoyl glucuronide, and were analyzed by LC/MS.
LC/MS System 3 was used for semi-quantitative analysis of metabolite M6 (DCDQ carbamoyl glucuronide) in plasma and urine samples. The HPLC equipment for this LC/MS System consisted of a Thermo Surveyor HPLC (Thermo Electron Corp., San Jose, Calif.), including a Surveyor MS pump and autosampler. Separations were accomplished on a 5 micron Phenomenex Luna C18(2) column, 150×2 mm (Phenomenex, Torrance, Calif.). The autosampler and column temperatures were set at 5° C. and 40° C., respectively. The HPLC mobile phase consisted of 10 mM ammonium acetate (A) and methanol (B), and was delivered at 0.2 mL/min. The linear mobile phase gradient (HPLC Gradient 2) is shown below. During LC/MS sample analysis, up to 3 min of the initial flow was diverted away from the mass spectrometer prior to evaluation of metabolites.
The mass spectrometer used for semi-quantitative anslysis with LC/MS System 3 was a Finnigan TSQ Quantum triple quadrupole mass spectrometer (Thermo Electron Corp.). The mass spectrometer was equipped with an electrospray interface and operated in the positive ionization mode. Settings for this mass spectrometer are listed below.
LC/MS/MS analysis in the selected reaction monitoring (SRM) mode (LC/SRM) was conducted for DCDQ and M6 using the following settings.

- M6 to DCDQ Ratios (50 mg (fasted), 0-4 hr, Mean ± S.D.): 841 ± 798
- M6 to DCDQ Ratios (50 mg (fasted), 0-4 hr, individual subjects): 214 and 571 and 1739
- M6 to DCDQ Ratios (50 mg (fasted), 4-12 hr, Mean ± S.D.): 419 ± 174
- M6 to DCDQ Ratios (50 mg (fasted), 4-12 hr, individual subjects): 389 and 606 and 261
- M6 to DCDQ Ratios (50 mg (fasted), 12-24 hr, Mean): 155 ± 98.1
- M6 to DCDQ Ratios (50 mg (fasted), 12-24 hr, individual subjects): 143 and 259 and 63.9
- M6 to DCDQ Ratios (200 mg (fasted), 0-4 hr, Mean ± S.D.): 151 ± 32.9
- M6 to DCDQ Ratios (200 mg (fasted), 0-4 hr, individual subjects): 169 and 171 and 113
- M6 to DCDQ Ratios (200 mg (fasted), 4-12 hr, Mean ± S.D.): 284 ± 98.7
- M6 to DCDQ Ratios (200 mg (fasted), 4-12 hr, individual subjects): 397 and 240 and 215
- M6 to DCDQ Ratios (200 mg (fasted), 12-24 hr, Mean ± S.D.): 115 ± 90.4
- M6 to DCDQ Ratios (200 mg (fasted), 12-24 hr, individual subjects): 216 and 85.9 and 42.3
- M6 to DCDQ Ratios (300 mg (fasted), 0-4 hr, Mean ± S.D.): 820 ± 365
- M6 to DCDQ Ratios (300 mg (fasted), 0-4 hr, individual subjects): 1167 and 852 and 440
- M6 to DCDQ Ratios (300 mg (fasted), 4-12 hr, Mean ± S.D.): 732 ± 702
- M6 to DCDQ Ratios (300 mg (fasted), 4-12 hr, individual subjects): 329 and 1543 and 324
- M6 to DCDQ Ratios (300 mg (fasted), 12-24 hr, Mean ± S.D.): 241 ± 212
- M6 to DCDQ Ratios (300 mg (fasted), 12-24 hr, individual subjects): 485 and 127 and 110
- M6 to DCDQ Ratios (300 mg (fed), 0-4 hr, Mean ± S.D.): 1018 ± 520
- M6 to DCDQ Ratios (300 mg (fed), 0-4 hr, individual subjects): 1162 and 441 and 1451
- M6 to DCDQ Ratios (300 mg (fed), 4-12 hr, Mean ± S.D.): 761 ± 508
- M6 to DCDQ Ratios (300 mg (fed), 4-12 hr, individual subjects): 375 and 571 and 1337
- M6 to DCDQ Ratios (300 mg (fed), 12-24 hr, Mean ± S.D.): 142 ± 46.0
- M6 to DCDQ Ratios (300 mg (fed), 12-24 hr, individual subjects): 148 and 92.6 and 184
- M6 to DCDQ Ratios (500 mg (fasted), 0-4 hr, Mean ± S.D.): 97.6 ± 55.2
- M6 to DCDQ Ratios (500 mg (fasted), 0-4 hr, individual subjects): 71.5 and 60.2 and 161
- M6 to DCDQ Ratios (500 mg (fasted), 4-12 hr, Mean ± S.D.): 84.3 ± 58.6
- M6 to DCDQ Ratios (500 mg (fasted), 4-12 hr, individual subjects): 149 and 34.6 and 69.4
- M6 to DCDQ Ratios (500 mg (fasted), 12-24 hr, Mean ± S.D.): 176 ± 128
- M6 to DCDQ Ratios (500 mg (fasted), 12-24 hr, individual subjects): 288 and 36.0 and 203
Compound: O=C(O)[C@H]1O[C@@H](OC(=O)N2CCN3C[C@@H]4CCC[C@@H]4c4cccc(c43)C2)[C@H](O)[C@@H](O)[C@@H]1O [Metabolite M6, carbamoyl glucuronide of DCDQ]
